{"source": "patent US6197746A", "about": "“Method of using secretin for treating autism” (priority 1999, dated 2001)", "key": {"[1]": {"test_system": "serotonin levels; rubella titers", "experiment": "Blood tests after secretin infusion (Example 1)", "format": "in vivo, human", "procedure": "(§1) Biomedical changes were also measured in the patient."}, "[2]": {"test_system": "abnormal opioid peptides", "conditions": "after the secretin infusion; autistic children that responded to casein free and gluten free diet; cited from earlier work"}, "[3]": {"test_system": "pancreas", "experiment": "Pancreatic juice release after intravenous secretin during upper gastrointestinal endoscopy (Example 1)", "format": "in vivo, human", "conditions": "immediately after 2 CU/kg i.v. over one minute; usual rate 1-2 ml/min", "procedure": "(§2) When the patient was […], the secretin was administered by way of an infusion as part of an upper gastrointestinal endoscopy. The secretin was used in this diagnostic procedure at the request of the patient's parents, one of which is an inventor of the present invention. The secretin used in this procedure is known as Secretin-Ferring available from Ferring Laboratories, Inc., Suffern, N.Y. (See Appendix A). The secretin was dissolved in a […] solution of sodium chloride and administered in a dosage of 2 clinical units (CU) per kilogram (kg) body weight by intravenous injection over one minute. (I.E. 30 IU IV for approximately 15 kilograms of body weight.)\n(§3) The diagnostic tests performed on the patient during this procedure also indicated gastric inflammation. […] The following Table I summarizes the improvements observed in the patient within 3 weeks after the infusion of secretin."}, "[4]": {"test_system": "symptoms of autism", "experiment": "Daily transdermal secretin with DMSO in a child with symptoms of autism (Example 2)", "format": "in vivo, human", "procedure": "At the time of this treatment, the patient was […]. Secretin was administered transdermally using pharmaceutical grade dimethyl sulfoxide (DMSO) (generally 99.9% pure) available from Clinic Service Co., Box 2512, Hemet Calif. 92543. The secretin (Secretin-Ferring) was administered daily in a dosage of about 75 CU over a five day period (i.e., about 15 CU daily) For each treatment, about 4 drops of DMSO were placed onto the skin of the patient, about 15 CU of the crystalline secretin was placed onto the DMSO, and the composition was rubbed into the skin."}, "[5]": {"test_system": "symptoms of autism", "experiment": "Symptoms and behaviour of a child with symptoms of autism after secretin infusion (Example 1, Table I)", "format": "in vivo, human", "procedure": "The present invention will be better understood from the following examples which are given by way of illustration and not by way of limitation. The patient, the same in both examples, is a child with symptoms of autism.\nas §2, §3"}, "[6]": {"test_system": "brain perfusion", "experiment": "SPECT scan of the brain after secretin infusion (Example 1)", "format": "in vivo, human", "procedure": "Further, the patient's secretin cells prior to receiving treatment, measured at a level of 9, are far below the normal limit in the range of 20-70.\nas §1"}, "[7]": {"conditions": "within weeks after the treatment"}}, "note": "“Also recorded” adds a separate entry of the source."}
{"substance": "secretin", "values": [{"measurement": "measles, mumps and rubella antibodies", "setting": "[1]; after the secretin administration in Example 1", "result": "reduction"}, {"measurement": "rubella titers", "setting": "[1]; after the treatment, dropped from 5.8", "result": 2.3}, {"measurement": "serotonin levels", "setting": "[1]; blood, after the treatment", "result": "rise and increase"}, {"measurement": "abnormal opioid peptides", "setting": "[2]", "result": "disappeared"}, {"measurement": "amount of pancreatic juice being released", "setting": "[3]", "result": "approximately 10 ml/min"}, {"measurement": "autistic behavioral symptoms when the daily dose is stopped", "setting": "[4]; transdermal daily dose stopped", "result": "autistic behavioral symptoms return"}, {"measurement": "language", "setting": "[4]; transdermal daily, within a period of about 6 months", "result": "progressed to spontaneous and conversational language"}, {"measurement": "rate of the patient's progress", "setting": "[5]; at about 5 weeks after first infusion", "result": "appeared to decrease"}, {"measurement": "results of second and third infusions", "setting": "[5]; second about 9 months after first, third about three months after second", "result": "achieved the same results"}, {"measurement": "limited diet preferences", "setting": "[5]; within 3 weeks after infusion", "result": "No Change"}, {"measurement": "water consumption", "setting": "[5]; within 3 weeks after infusion", "result": "approximately 50 cups per day"}, {"measurement": "bowel movements", "setting": "[5]; within 3 weeks after infusion, before: abnormal", "result": "Normal bowel movements"}, {"measurement": "excessive water consumption", "setting": "[5]; within 3 weeks after infusion, before: approximately 50 cups per day", "result": "no change"}, {"measurement": "potty training", "setting": "[5]; within 3 weeks after infusion, before: diapers only", "result": "Completely potty trained"}, {"measurement": "imitation of commands", "setting": "[5]; within 3 weeks after infusion, before: did not imitate", "result": "Will imitate almost any multi-step"}, {"measurement": "\"spinning\" episodes", "setting": "[5]; within 3 weeks after infusion, before: infrequent (1-2 times/week)", "result": "No spinning episodes"}, {"measurement": "eye contact", "setting": "[5]; within 3 weeks after infusion, before: minimal eye contact", "result": "75 % of the time"}, {"measurement": "connections made between language and objects", "setting": "[5]; within 3 weeks after infusion, before: no apparent connections", "result": "Many connections made between new"}, {"measurement": "flash cards", "setting": "[5]; within 3 weeks after infusion, before: no flash cards", "result": "40-50 flash cards"}, {"measurement": "focus on requested tasks", "setting": "[5]; within 3 weeks after infusion, before: no focus", "result": "Will sit and watch carefully"}, {"measurement": "interest in drawing", "setting": "[5]; within 3 weeks after infusion, before: no interest", "result": "Wants to draw constantly"}, {"measurement": "response to request for gestures", "setting": "[5]; within 3 weeks after infusion, before: no response", "result": "Responds to all kinds of things"}, {"measurement": "sentences", "setting": "[5]; within 3 weeks after infusion, before: no sentences", "result": "Short sentences"}, {"measurement": "words", "setting": "[5]; within 3 weeks after infusion, before: two words", "result": "100's of words"}, {"measurement": "sleeping problems", "setting": "[5]; within 3 weeks after infusion, before: up numerous times each night", "result": "Has slept through almost every night"}, {"measurement": "interaction with videos", "setting": "[5]; within 3 weeks after infusion, before: watch videos", "result": "gets \"involved\" interactively"}, {"measurement": "chronic abnormal bowel movements", "setting": "[5]; within days after the administration, no change of diet", "result": "became normal"}, {"measurement": "eye contact", "setting": "[5]; [7]", "result": "able to make normal eye contact"}, {"measurement": "language", "setting": "[5]; [7]", "result": "language appeared for the first time in two years"}, {"measurement": "other behavioral and developmental problems", "setting": "[5]; [7]", "result": "improved remarkably"}, {"measurement": "perfusion of the right posterior parietal and right temporal lobes (blood flow in the brain)", "setting": "[6]", "result": "improved; also recorded: increased"}]}
